Twelve compounds from patent US20260374818A1, “CATIONIC PEPTIDES WITH BROAD SPECTRUM ACTIVITY” (priority 2023, published 2026) can be followed below.

The test system of assay [1] is P. aeruginosa PAO1 biofilms. The experiment in a line: Checkerboard biofilm synergy of AB103-D with antimicrobials, PAO1. The class given is cell-based, Pseudomonas aeruginosa. Conditions: for FIC against biofilms: antibiotic used with AB103-D, ≤0.5 synergy; for Fold Decrease in concentration of AB103-D: in combination of antibiotic with AB103-D; for Fold Decrease in concentration of AB103-D / Fold Decrease in concentration of Antibiotic: PAO1; for Fold Decrease in concentration of Antibiotic: in combination with AB103-D.

Assay [2] relates to MRSA USA 300 LAC biofilms. Description: Checkerboard biofilm synergy of AB103-D with antimicrobials, MRSA. Format: cell-based, methicillin resistant Staphylococcus aureus. Conditions: for Biofilm MBIC in 10% TSB, 0.1% glucose / Fold decrease AB103-D / Fold decrease Antibiotic: MRSA; for FIC: antibiotic used with AB103-D, MRSA USA 300 LAC, ≤0.5 synergy; for Fold decrease AB103-D: in combination of antibiotic with AB103-D; for Fold decrease Antibiotic: in combination with AB103-D.

In assay [3] the test system is MRSA USA 300 LAC planktonic cells. The experiment in a line: MIC of antibiotics against planktonic cells, MRSA. The class given is cell-based, methicillin resistant Staphylococcus aureus. Conditions: for MIC in 10% TSB, 0.1% glucose / MIC in MHB medium: MRSA planktonic; for MIC: Staphylococcus aureus.
Assay [4] has as its system P. aeruginosa PAO1 planktonic cells. The experiment in a line: MIC of antibiotics against planktonic cells, PAO1. Conditions: for MIC against planktonic cells in BM2 medium: PAO1, BM2; for MIC against planktonic cells in MHB medium: PAO1, MHB; for MIC: Pseudomonas aeruginosa. The class given is cell-based, Pseudomonas aeruginosa.
Where [5] appears, read: antibiotic alone, PAO1, BM2, at least 70% reduction.
Setting [6] is: antibiotic alone, at least 70% reduction.
The mark [7] stands for this setting: read-out: MIC in 10% TSB, 0.1% glucose.
Where [8] appears, read: PAO1, read-out: MIC against planktonic cells in BM2 medium.
Where [9] appears, read: PAO1, read-out: MIC against planktonic cells in MHB medium.

Where two headings read alike, the source gives them in different places.

In the case of Benzalkonium-C1, the “Antibiotic MBIC against biofilms” value in assay [1] (setting [5]) was determined as 16 µg/mL. Besides, the FIC against biofilms in assay [1] (PAO1, BM2) turned out to be 0.51. Further, in assay [1], the “Fold Decrease in concentration of AB103-D” value (“Fold Decrease … of AB103-D” below) is on record as 2-fold and the “Fold Decrease in concentration of Antibiotic” value (“Fold Decrease … of Antibiotic” below) is given as 128-fold. Moreover, the “Biofilm MBIC in 10% TSB, 0.1% glucose” value in assay [2] (setting [6]) was 1. Besides, in assay [2], the FIC is recorded as 0.5, the “Fold decrease AB103-D” value is listed as 4-fold and the “Fold decrease Antibiotic” value was 4-fold. For the same compound, the “MIC in 10% TSB, 0.1% glucose” value in assay [3] (10% TSB, 0.1% glucose) worked out at 1. Further, the MIC in MHB medium in assay [3] amounted to 0.25 µg/mL. In assay [4], the “MIC against planktonic cells in BM2 medium” value (shortened to “MIC … in BM2 medium”) was 16 µg/mL and the “MIC against planktonic cells in MHB medium” value stood at 16 µg/mL.

`O=C(O)CN(CCN(CC(=O)O)CC(=O)O)CC(=O)O` [EDTA]: the “Antibiotic MBIC against biofilms” value in assay [1] (setting [5]) was 128 µg/mL. Also, in assay [1] (PAO1, BM2), the FIC against biofilms was 1.02. For the same compound, in assay [1], the “Fold Decrease … of AB103-D” value was “No” and the “Fold Decrease … of Antibiotic” value is given as 64-fold. For the same compound, in assay [2] (setting [6]), the “Biofilm MBIC in 10% TSB, 0.1% glucose” value came to 128. Further, in assay [2], the FIC turned out to be 0.38, the “Fold decrease AB103-D” value was 4-fold and the “Fold decrease Antibiotic” value is 8-fold. The “MIC in 10% TSB, 0.1% glucose” value in assay [3] (10% TSB, 0.1% glucose) came to 128. For the same compound, in assay [3], the MIC in MHB medium came out at 64 µg/mL. In assay [4], the “MIC … in BM2 medium” value was over 256 µg/mL and the “MIC against planktonic cells in MHB medium” value was over 256 µg/mL.

On to `OO` [H2O2], for which the “Antibiotic MBIC against biofilms” value in assay [1] (PAO1, BM2, in %) was found to be 0.08%. For the same compound, the FIC against biofilms in assay [1] (PAO1, BM2) came to 0.5. In assay [1], the “Fold Decrease … of AB103-D” value is given as 4-fold and the “Fold Decrease … of Antibiotic” value is 4-fold. In assay [2] (in %), the “Biofilm MBIC in 10% TSB, 0.1% glucose” value stood at 0.0025%. In assay [2], the FIC came out at 0.63, the “Fold decrease AB103-D” value was 8-fold and the “Fold decrease Antibiotic” value is given as 2-fold. Further, in assay [3] (in %), the “MIC in MHB medium” value is 0.0018% and the “MIC in 10% TSB, 0.1% glucose” value was determined as 0.0025%. In addition, in assay [4] (in %), the “MIC … in BM2 medium” value is given as 0.08% and the “MIC against planktonic cells in MHB medium” value amounted to 0.01%.

In the case of `CO/N=C(\C(=O)N[C@@H]1C(=O)N2C(C(=O)[O-])=C(C[N+]3(C)CCCC3)CS[C@H]12)c1csc(N)n1` [Cefepime], the FIC against biofilms in assay [1] (PAO1, BM2) is 0.56. Moreover, in assay [1], the “Fold Decrease … of AB103-D” value is recorded as 2-fold and the “Fold Decrease … of Antibiotic” value was 16-fold. In assay [2], the FIC was found to be 0.38, the “Fold decrease AB103-D” value is on record as 8-fold and the “Fold decrease Antibiotic” value is recorded as 4-fold. In addition, the minimal inhibitory concentration (MIC) in assay [3] (setting [7]) amounted to 8 µg/mL. The minimum inhibitory concentration (MIC) in assay [3] (read-out: MIC in MHB medium) was determined as 8 µg/mL. In assay [4] (setting [8]), the MIC turned out to be 0.5 µg/mL. Also, the MIC in assay [4] (setting [9]) is 1 µg/mL.

Regarding Colistin, the “Antibiotic MBIC against biofilms” value in assay [1] (setting [5]) came to 4 µg/mL. Besides, in assay [1] (PAO1, BM2), the FIC against biofilms stood at 0.63. In assay [1], the “Fold Decrease … of AB103-D” value is 8-fold and the “Fold Decrease … of Antibiotic” value is 2-fold. The “Biofilm MBIC in 10% TSB, 0.1% glucose” value in assay [2] (setting [6]) is 2. In addition, in assay [2], the FIC was found to be 0.63, the “Fold decrease AB103-D” value is on record as 2-fold and the “Fold decrease Antibiotic” value is on record as 8-fold. Further, the “MIC in 10% TSB, 0.1% glucose” value in assay [3] (10% TSB, 0.1% glucose) amounted to 4. Also, the MIC in MHB medium in assay [3] was 8 µg/mL. Besides, in assay [4], the “MIC … in BM2 medium” value worked out at 4 µg/mL and the “MIC against planktonic cells in MHB medium” value is 1 µg/mL.

On to `NCC[C@H](O)C(=O)N[C@@H]1C[C@H](N)[C@@H](O[C@H]2O[C@H](CN)[C@@H](O)[C@H](O)[C@H]2O)[C@H](O)[C@H]1O[C@H]1O[C@H](CO)[C@@H](O)[C@H](N)[C@H]1O` [Amikacin], for which, in assay [1] (PAO1, BM2), the FIC against biofilms was 1.06. For the same compound, in assay [1], the “Fold Decrease … of AB103-D” value is reported as “No” and the “Fold Decrease … of Antibiotic” value is listed as 16-fold. For the same compound, in assay [2], the FIC was 1, the “Fold decrease AB103-D” value is given as 2-fold and the “Fold decrease Antibiotic” value is 2-fold. The minimal inhibitory concentration (MIC) in assay [3] (setting [7]) is 0.5 µg/mL. The MIC in assay [3] (read-out: MIC in MHB medium) came out at 0.5 µg/mL. In addition, the minimum inhibitory concentration (MIC) in assay [4] (setting [8]) was 4 µg/mL. In assay [4] (setting [9]), the MIC came to 0.5 µg/mL.

Turning to Polymyxin B, the “Antibiotic MBIC against biofilms” value in assay [1] (setting [5]) came to 2 µg/mL. In addition, in assay [1] (PAO1, BM2), the FIC against biofilms was 0.56. In addition, in assay [1], the “Fold Decrease … of AB103-D” value is 16-fold and the “Fold Decrease … of Antibiotic” value is 2-fold. Further, the “Biofilm MBIC in 10% TSB, 0.1% glucose” value in assay [2] (setting [6]) amounted to 2. Further, in assay [2], the FIC was determined as 0.5, the “Fold decrease AB103-D” value is listed as 4-fold and the “Fold decrease Antibiotic” value is 4-fold. In addition, the “MIC in 10% TSB, 0.1% glucose” value in assay [3] (10% TSB, 0.1% glucose) was 2. Besides, the MIC in MHB medium in assay [3] is 4 µg/mL. In assay [4], the “MIC … in BM2 medium” value was 2 µg/mL and the “MIC against planktonic cells in MHB medium” value was 2 µg/mL.

Turning to `CCC[C@@H]1C[C@@H](C(=O)N[C@@H]([C@H]2O[C@H](SC)[C@H](O)[C@@H](O)[C@H]2O)[C@H](C)Cl)N(C)C1` [Clindamycin], the FIC against biofilms in assay [1] (PAO1, BM2) was found to be 1. In assay [1], the “Fold Decrease … of AB103-D” value is listed as 2-fold and the “Fold Decrease … of Antibiotic” value is on record as 2-fold. In addition, in assay [2], the FIC is 0.635, the “Fold decrease AB103-D” value is listed as 2-fold and the “Fold decrease Antibiotic” value is reported as 8-fold. Further, in assay [3] (setting [7]), the MIC was determined as 0.5 µg/mL. In addition, the MIC in assay [3] (read-out: MIC in MHB medium) came out at 0.125 µg/mL. The minimal inhibitory concentration (MIC) in assay [4] (setting [8]) is over 256 µg/mL. For the same compound, in assay [4] (setting [9]), the MIC was over 256 µg/mL.

In the case of `O=[N+]([O-])[O-].[Ag+]` [AgNO3], the “Antibiotic MBIC against biofilms” value in assay [1] (setting [5]) was found to be 0.03 µg/mL. Besides, in assay [1] (PAO1, BM2), the FIC against biofilms is reported as 1. Further, in assay [1], the “Fold Decrease … of AB103-D” value is listed as 2-fold and the “Fold Decrease … of Antibiotic” value is 2-fold. Also, the “Biofilm MBIC in 10% TSB, 0.1% glucose” value in assay [2] (setting [6]) is on record as 0.25. Also, in assay [2], the FIC was found to be 1.13, the “Fold decrease AB103-D” value is reported as “No” and the “Fold decrease Antibiotic” value is recorded as 8-fold. For the same compound, in assay [3] (10% TSB, 0.1% glucose), the “MIC in 10% TSB, 0.1% glucose” value turned out to be 0.25. The MIC in MHB medium in assay [3] came to 0.25 µg/mL. Besides, in assay [4], the “MIC … in BM2 medium” value came to 0.03 µg/mL and the “MIC against planktonic cells in MHB medium” value turned out to be 0.125 µg/mL.

With `CC[C@H]1OC(=O)[C@H](C)[C@@H](O[C@H]2C[C@@](C)(OC)[C@@H](O)[C@H](C)O2)[C@H](C)[C@@H](O[C@@H]2O[C@H](C)C[C@H](N(C)C)[C@H]2O)[C@](C)(O)C[C@@H](C)CN(C)[C@H](C)[C@@H](O)[C@]1(C)O` [Azithromycin], the FIC against biofilms in assay [1] (PAO1, BM2) stood at 0.75. Besides, in assay [1], the “Fold Decrease … of AB103-D” value is given as 2-fold and the “Fold Decrease … of Antibiotic” value is listed as 4-fold. Moreover, in assay [2], the FIC was found to be 0.38, the “Fold decrease AB103-D” value was 8-fold and the “Fold decrease Antibiotic” value is 4-fold. Further, the MIC in assay [3] (setting [7]) is 4 µg/mL. The MIC in assay [3] (read-out: MIC in MHB medium) was 1 µg/mL. In assay [4] (setting [8]), the minimal inhibitory concentration (MIC) amounted to 128 µg/mL. In assay [4] (setting [9]), the minimum inhibitory concentration (MIC) is 128 µg/mL.

For the compound `CCn1cc(C(=O)O)c(=O)c2cc(F)c(N3CCNCC3)cc21` [Norfloxacin], the FIC against biofilms in assay [1] (PAO1, BM2) worked out at 1.13. In addition, the “Fold Decrease … of AB103-D” value in assay [1] is given as “No”. Further, in assay [1], the “Fold Decrease … of Antibiotic” value is 8-fold. The FIC in assay [2] is listed as 0.5. In addition, the “Fold decrease AB103-D” value in assay [2] was 4-fold. Also, in assay [2], the “Fold decrease Antibiotic” value is given as 4-fold. Further, the MIC in assay [3] (setting [7]) came to 32 µg/mL; in assay [3] (read-out: MIC in MHB medium), 32 µg/mL; in assay [4] (setting [8]), 0.25 µg/mL; in assay [4] (setting [9]) it was 0.5 µg/mL.

For `O=C(O)c1cn(C2CC2)c2cc(N3CCNCC3)c(F)cc2c1=O` [Ciprofloxacin], the FIC against biofilms in assay [1] (PAO1, BM2) is given as 0.53. Also, the FIC in assay [2] was found to be 0.5.

As usually defined, the MIC is the lowest concentration that inhibits growth of the organism.
